# From patent US8318949B2, “Organic compounds” (Novartis AG, priority 2008, dated 2012)
row,melting point [°C],SMILES
1,232 to 233,"Cc1nc(-n2cnn(Cc3ccc(F)cc3)c2=O)sc1C(N)=O [Example 1, 2-(1-(4-fluorobenzyl)-5-oxo-1H-1,2,4-triazol-4(5H)-yl)-4-methylthiazole-5-carboxamide]"
2,180 to 181,"Cc1nc(-n2cnn(CC3CC3)c2=O)sc1C(N)=O [Example 1.1, 2-[1-(cyclopropylmethyl)-5-oxo-1H-1,2,4-triazol-4(5H)-yl]-4-methylthiazole-5-carboxamide]"
3,216 to 217,"Cc1nc(N2CCN(Cc3ccc(C(F)(F)F)cc3)C2=O)sc1C(N)=O [Example 1.2, 4-methyl-2-{2-oxo-3-[4-(trifluoromethyl)benzyl]imidazolidin-1-yl}thiazole-5-carboxamide]"
4,192 to 194,"Cc1nc(N2C[C@H](C)N(Cc3ccc(F)cc3)C2=O)sc1C(N)=O [Example 1.3, (S)-2-(3-(4-fluorobenzyl)-4-methyl-2-oxoimidazolidin-1-yl)-4-methylthiazole-5-carboxamide]"
5,198 to 200,"Cc1nc(N2CCN(CC3CC3)C2=O)sc1C(N)=O [Example 1.5, 2-(3-(cyclopropylmethyl)-2-oxoimidazolidin-1-yl)-4-methylthiazole-5-carboxamide]"
6,212 to 215,"Cc1nc(N2CCN(CC(C)C)C2=O)sc1C(N)=O [Example 1.6, 2-(3-isobutyl-2-oxoimidazolidin-1-yl)-4-methylthiazole-5-carboxamide]"
7,221 to 223,"Cc1nc(N2CCN(Cc3ccc(F)c(F)c3)C2=O)sc1C(N)=O [Example 1.7, 2-(3-(3,4-difluorobenzyl)-2-oxoimidazolidin-1-yl)-4-methylthiazole-5-carboxamide]"
8,> 200,"Cc1nc(N2CCN(Cc3cc(F)cc(F)c3)C2=O)sc1C(N)=O [Example 1.8, 2-(3-(3,5-difluorobenzyl)-2-oxoimidazolidin-1-yl)-4-methylthiazole-5-carboxamide]"
9,185 to 187,"Cc1nc(N2CCN(Cc3ccc(OC(F)(F)F)cc3)C2=O)sc1C(N)=O [Example 1.9, 4-methyl-2-(2-oxo-3-(4-(trifluoromethoxy)benzyl)imidazolidin-1-yl)thiazole-5-carboxamide]"
10,225 to 228,"Cc1nc(N2CCN(Cc3ccc(C(F)(F)F)nc3)C2=O)sc1C(N)=O [Example 1.10, 4-methyl-2-(2-oxo-3-((6-(trifluoromethyl)pyridine-3-yl)methyl)imidazolidin-1-yl)thiazole-5-carboxamide]"
11,182 to 184,"COc1ccc(CN2CCN(c3nc(C)c(C(N)=O)s3)C2=O)cc1F [Example 1.11, 2-(3-(3-fluoro-4-methoxybenzyl)-2-oxoimidazolidin-1-yl)-4-methylthiazole-5-carboxamide]"
12,197 to 198,"Cc1nc(N2C(=O)N(Cc3ccc(F)cc3)C[C@@H]2C)sc1C(N)=O [Example 1.12, (S)-2-(3-(4-fluorobenzyl)-5-methyl-2-oxoimidazolidin-1-yl)-4-methylthiazole-5-carboxamide]"
13,> 200,"Cc1nc(N2CCN(Cc3ccc(Cl)cc3)C2=O)sc1C(N)=O [Example 1.13, 2-(3-(4-chlorobenzyl)-2-oxoimidazolidin-1-yl)-4-methylthiazole-5-carboxamide]"
14,212 to 213,"Cc1nc(N2C[C@@H](C)N(Cc3cc(F)cc(F)c3)C2=O)sc1C(N)=O [Example 1.14, (R)-2-(3-(3,5-difluorobenzyl)-4-methyl-2-oxoimidazolidin-1-yl)-4-methylthiazole-5-carboxamide]"
15,185 to 186,"Cc1nc(N2C[C@@H](C)N(Cc3ccc(F)cc3)C2=O)sc1C(N)=O [Example 1.15, (R)-2-(3-(4-fluorobenzyl)-4-methyl-2-oxoimidazolidin-1-yl)-4-methylthiazole-5-carboxamide]"
16,110 to 112,"Cc1nc(N2C[C@@H](C)N(Cc3ccc(C(F)(F)F)cc3)C2=O)sc1C(N)=O [Example 1.16, (R)-4-methyl-2-(4-methyl-2-oxo-3-(4-(trifluoromethyl)benzyl)imidazolidin-1-yl)thiazole-5-carboxamide]"
17,67 to 70,"Cc1nc(N2C[C@H](C)N(Cc3ccc(F)cc3)C2=O)sc1C(=O)NCc1cccnc1 [Example 2, (S)-2-(3-(4-Fluorobenzyl)-4-methyl-2-oxoimidazolidin-1-yl)-4-methyl-N-(pyridin-3-ylmethyl)thiazole-5-carboxamide]"
18,62 to 65,"Cc1nc(N2C[C@H](C)N(Cc3ccc(F)cc3)C2=O)sc1C(=O)NCc1ccc(F)c(F)c1 [Example 2.1, (S)-N-(3,4-difluorobenzyl)-2-(3-(4-fluorobenzyl)-4-methyl-2-oxoimidazolidin-1-yl)-4-methylthiazole-5-carboxamide]"

row,melting point [°C],SMILES
1,225 to 226,"Cc1cc(CNC(=O)c2sc(N3CCN(Cc4ccc(F)cc4)C3=O)nc2C)[nH]n1 [Example 2.2, 2-(3-(4-fluorobenzyl)-2-oxoimidazolidin-1-yl)-4-methyl-N-((3-methyl-1H-pyrazol-5-yl)methyl)thiazole-5-carboxamide]"
2,234 to 235,"Cc1cc(CNC(=O)c2sc(-n3cnn(Cc4ccc(F)cc4)c3=O)nc2C)[nH]n1 [Example 2.3, 2-(1-(4-Fluorobenzyl)-5-oxo-1H-1,2,4-triazol-4(5H)-yl)-4-methyl-N-((3-methyl-1H-pyrazol-5-yl)methyl)thiazole-5-carboxamide]"
3,144 to 145,"C=CCCN1CCN(c2nc(C)c(C(=O)NCc3cccnc3)s2)C1=O [Example 2.4, 2-(3-(but-3-enyl)-2-oxoimidazolidin-1-yl)-4-methyl-N-(pyridin-3-ylmethyl)thiazole-5-carboxamide]"
4,118 to 119,"Cc1nc(N2C[C@@H](C)N(Cc3ccc(F)cc3)C2=O)sc1C(=O)NCc1ccccn1 [Example 2.5, (R)-2-(3-(4-fluorobenzyl)-4-methyl-2-oxoimidazolidin-1-yl)-4-methyl-N-(pyridin-2-ylmethyl)thiazole-5-carboxamide]"
5,134 to 135,"Cc1nc(N2C[C@@H](C)N(Cc3ccc(F)cc3)C2=O)sc1C(=O)NCc1ccc(F)c(F)c1 [Example 2.6, (R)-N-(3,4-difluorobenzyl)-2-(3-(4-fluorobenzyl)-4-methyl-2-oxoimidazolidin-1-yl)-4-methylthiazole-5-carboxamide]"
6,66 to 69,"Cc1nc(N2C[C@@H](C)N(Cc3ccc(F)cc3)C2=O)sc1C(=O)NCc1cncs1 [Example 2.8, (R)-2-(3-(4-fluorobenzyl)-4-methyl-2-oxoimidazolidin-1-yl)-4-methyl-N-(thiazol-5-ylmethyl)thiazole-5-carboxamide]"
7,215 to 216,"Cc1cc(CNC(=O)c2sc(N3C[C@@H](C)N(Cc4ccc(F)cc4)C3=O)nc2C)[nH]n1 [Example 2.9, (R)-2-(3-(4-fluorobenzyl)-4-methyl-2-oxoimidazolidin-1-yl)-4-methyl-N-((3-methyl-1H-pyrazol-5-yl)methyl)thiazole-5-carboxamide]"
8,159 to 160,"Cc1nc(N2C[C@@H](C)N(Cc3ccc(F)cc3)C2=O)sc1C(=O)NCc1cc(F)cc(F)c1 [Example 2.10, (R)-N-(3,5-difluorobenzyl)-2-(3-(4-fluorobenzyl)-4-methyl-2-oxoimidazolidin-1-yl)-4-methylthiazole-5-carboxamide]"
9,139 to 140,"Cc1cc(CNC(=O)c2sc(N3C[C@@H](C)N(Cc4ccc(F)cc4)C3=O)nc2C)no1 [Example 2.11, (R)-2-(3-(4-fluorobenzyl)-4-methyl-2-oxoimidazolidin-1-yl)-4-methyl-N-((5-methylisoxazol-3-yl)methyl)thiazole-5-carboxamide]"
10,147 to 148,"Cc1nc(N2C[C@@H](C)N(Cc3cc(F)cc(F)c3)C2=O)sc1C(=O)NCc1ccccn1 [Example 2.12, (R)-2-(3-(3,5-difluorobenzyl)-4-methyl-2-oxoimidazolidin-1-yl)-4-methyl-N-(pyridin-2-ylmethyl)thiazole-5-carboxamide]"
11,131 to 132,"Cc1cnc(CNC(=O)c2sc(N3C[C@@H](C)N(Cc4cc(F)cc(F)c4)C3=O)nc2C)cn1 [Example 2.13, (R)-2-(3-(3,5-difluorobenzyl)-4-methyl-2-oxoimidazolidin-1-yl)-4-methyl-N-((5-methylpyrazin-2-yl)methyl)thiazole-5-carboxamide]"
12,63 to 66,"Cc1cc(CNC(=O)c2sc(N3C[C@@H](C)N(Cc4cc(F)cc(F)c4)C3=O)nc2C)no1 [Example 2.14, (R)-2-(3-(3,5-difluorobenzyl)-4-methyl-2-oxoimidazolidin-1-yl)-4-methyl-N-((5-methylisoxazol-3-yl)methyl)thiazole-5-carboxamide]"
13,112 to 113,"Cc1nc(N2C(=O)N(Cc3ccc(F)cc3)C[C@@H]2C)sc1C(=O)NCc1ccccn1 [Example 2.15, (S)-2-(3-(4-fluorobenzyl)-5-methyl-2-oxoimidazolidin-1-yl)-4-methyl-N-(pyridin-2-ylmethyl)thiazole-5-carboxamide]"
14,176 to 177,"Cc1nc(N2C(=O)N(Cc3ccc(F)cc3)C[C@@H]2C)sc1C(=O)NCc1cnn(C)c1 [Example 2.16, (S)-2-(3-(4-fluorobenzyl)-5-methyl-2-oxoimidazolidin-1-yl)-4-methyl-N-((1-methyl-1H-pyrazol-4-yl)methyl)thiazole-5-carboxamide]"
15,174 to 175,"Cc1cc(CNC(=O)c2sc(N3C(=O)N(Cc4ccc(F)cc4)C[C@@H]3C)nc2C)no1 [Example 2.17, (S)-2-(3-(4-fluorobenzyl)-5-methyl-2-oxoimidazolidin-1-yl)-4-methyl-N-((5-methylisoxazol-3-yl)methyl)thiazole-5-carboxamide]"
16,55 to 57,"Cc1nc(N2C(=O)N(Cc3ccc(F)cc3)C[C@H]2C)sc1C(=O)NCc1ccccn1 [Example 2.18, (R)-2-(3-(4-fluorobenzyl)-5-methyl-2-oxoimidazolidin-1-yl)-4-methyl-N-(pyridin-2-ylmethyl)thiazole-5-carboxamide]"
17,70 to 73,"Cc1nc(N2C(=O)N(Cc3ccc(F)cc3)C[C@H]2C)sc1C(=O)NCc1cncs1 [Example 2.19, (R)-2-(3-(4-fluorobenzyl)-5-methyl-2-oxoimidazolidin-1-yl)-4-methyl-N-(thiazol-5-ylmethyl)thiazole-5-carboxamide]"
